“Also recorded” adds a separate entry of the source.
What was measured:
[1] = Solubility (medicinal chemistry measurements); type: physicochemical; conditions: relative to Compound 8
INS-1E cells = assay: Luciferase Insulin Secretion Assay (proinsulin-Gaussia luciferase reporter); type: cell-based, rat; parameters: key to Activity: Active: a compound is identified as active if the compound has a Z-score greater than 3 in the presence of 16.7 mM glucose; Partial activity indicates that the compound does promote insulin secretion (at lower Z-scores); Lost Glucose Dependence: In some cases, insulin secretion was promoted at both measured insulin concentrations; conditions: for Activity: glucose dependence of insulin secretion, Z-score in the presence of 16.7 mM glucose; for glucose-dependent (glucose-stimulated) insulin secretion, luciferase reporter / effect on glucose-stimulated insulin secretion at high concentrations: INS-1E cells; for glucose-dependent (glucose-stimulated) insulin secretion, luciferase reporter: 2.8 mM vs 16.7 mM glucose; for effect on glucose-stimulated insulin secretion at high concentrations: high compound concentrations
Text: A high-throughput luminescent insulin secretion assay was developed and performed to identify compounds that amplified insulin secretion only in the presence of a permissive glucose environment (FIG. 3). The assay used in compound screening is described in International Patent Publication No. WO2013070796A3, PCT/US2012/063982, and in Burns et al., High-Throughput Luminescent Reporter of Insulin Secretion for Discovering Regulators of Pancreatic Beta-Cell Function. Cell Metab. 2015 Jan. 6; 21(1):126-37.
The assay is a luminescent insulin secretion assay created by inserting Gaussia luciferase within the C-peptide portion of the insulin prohormone. Gaussia luciferase was chosen because of its small size and bright luciferase signal. To ensure full activity of the luciferase, a version was used that was codon-optimized for expression in mammalian cells. The enzyme was flanked with additional cleavage sites for prohormone convertase 2 (PC2), such that no extra amino acids should be present on the ends of the enzyme after processing within the vesicles (FIG. 4). Rat (INS-1E; Merglen et al., 2004) beta-cell lines stably expressing the reporter construct were generated. Assays using this cell type are referred to herein as Luciferase Insulin Secretion Assay.
A search for glucose-dependent insulin secretagogues was conducting by screening 384,216 compounds at a single concentration (10 μM) in duplicate using the Luciferase Insulin Secretion Assay, to identify those that increase insulin secretion only in the presence of high glucose (11.1 mM) (FIG. 6). These assays were performed in 1536 well format. A Z′ factor of 0.35 was obtained with respect the positive control (300 μM IBMX). The cutoff value selected was 45% activation, which was 3-4 standard deviations above background (solid uppermost line; FIG. 6).
For standard secretion assays, INS-1E cells were plated in 96-well format, preincubated for 1 hr in Krebs Ringer Buffer (KRB) with 2.8 mM glucose, and then stimulated for 1 hr in fresh KRB containing varying amounts of glucose and compounds. Insulin or C-peptide concentration was determined using an ELISA (Mercodia), following the manufacturer's protocol. Luciferase activity was determined from the same samples by adding the coelenterazine substrate to the supernatant to a final concentration of 10 μM and reading on a standard plate reader (BioTek).
INS-1E cells were expanded to 80% confluence in their growth medium, washed once in PBS, and preincubated for 1 hr at 37° C. in KRB with 2.8 mM glucose. Cells were then dissociated, spun at 300×g for 2 min, resuspended in fresh KRB without glucose, and filtered through 40 μm mesh (Becton Dickinson). Next, the cells were counted and diluted in KRB to 1×10^6 cells per ml, and glucose was added as required for each experiment. Cells were then seeded in 384-well format, 3×10^4 cells in 30 μl per well, using a Multidrop Combi device (Thermo Scientific). Compounds were pinned into each well using a Vario robot (CyBio) to a final concentration of 30 μM, and the plates were then incubated for 2 hr at 37° C. For assays involving a transfer step, the plates were then centrifuged at 300×g for 2 min, and 20 μl of supernatant was transferred to a new 384-well plate. Coelenterazine substrate was then added to a final concentration of 10 μM, and luciferase activity was determined using a standard plate reader (BioTek).

alpha-TC-1-6 = assay: Luminescent glucagon secretion assay in alpha-cell line; type: cell-based; conditions: compared with DMSO negative control
Experimental: FIG. 10 depicts the quantification of α-cell secretory activity in cells treated with DMSO, KCl, or Compound 8, using a luminescent assay for glucagon secretion.
To investigate the cell-type specificity of the compound, and to exclude the possibility that Compound 8 acts as a generic secretagogue, the compound was tested on secretion from a rodent alpha-cell line, “alpha-TC-1-6,” using a luciferase reporter for glucagon secretion that mirrors the insulin secretion assay (FIG. 10).

Plasma stability, rat = type: in vitro ADME
Experimental: (§1) Measurements were performed on human, mouse (CD-1) and rat (SD) microsomes to determine the t1/2, the plasma protein binding (“PPB”) and the plasma stability (“PS”).

Plasma stability, mouse = type: in vitro ADME
Experimental: as §1

Plasma stability, human = type: in vitro ADME
Experimental: as §1

SMILES | Activity (INS-1E cells) | also measured
Cc1cccc(NC(=O)c2ccc(OCc3c(C)cncc3C)cc2)c1C [Compound 49, N-(2,3-Dimethyl-phenyl)-4-(3,5-dimethyl-pyridin-4-ylmethoxy)-benzamide] | Inactive | solubility [1]: lower solubility than Compound 8; EC50 (INS-1E cells; Rattus norvegicus, INS-1E, glucose concentration of 16.7 mM): ~82 nM
Cc1noc(C)c1COc1ccc(C(=O)Nc2cccc3c2CCC3)cc1 [Compound 81, 4-(3,5-Dimethyl-isoxazol-4-ylmethoxy)-N-indan-4-yl-benzamide] | Inactive | –
Cc1cccc(NC(=O)c2ccc(OCc3c(C)noc3C)cc2)n1 [Compound 82] | Inactive | –
Cc1noc(C)c1COc1ccc(C(=O)Nc2cccc(C#N)c2C)cc1 [Compound 83, N-(3-Cyano-2-methyl-phenyl)-4-(3,5-dimethyl-isoxazol-4-ylmethoxy)-benzamide] | Inactive | –
COCc1cccc(NC(=O)c2ccc(OCc3c(C)noc3C)cc2)c1 [Compound 84, 4-(3,5-Dimethyl-isoxazol-4-ylmethoxy)-N-(3-methoxymethyl-phenyl)-benzamide] | Inactive | –
CC(=O)c1ccccc1NC(=O)c1ccc(OCc2c(C)noc2C)cc1 [Compound 85] | Inactive | –
Cc1noc(C)c1COc1ccc(C(=O)NC2CCCO2)cc1 (centres unmarked) [Compound 86] | Inactive | –
CC(=O)NCCCc1cc(C(=O)Nc2cccc(C)c2C)ccc1OCc1c(C)noc1C [Compound 88, 3-(3-Acetylamino-propyl)-4-(3,5-dimethyl-isoxazol-4-ylmethoxy)-N-(2,3-dimethyl-phenyl)-benzamide] | Active | –
Cc1cccc(NC(=O)c2ccc(OCc3c(C)noc3C)c(CCCN=[N+]=[N-])c2)c1C [Compound 89, 3-(3-Azido-propyl)-4-(3,5-dimethyl-isoxazol-4-ylmethoxy)-N-(2,3-dimethyl-phenyl)-benzamide] | Inactive | –
CC(=O)NCc1ccccc1NC(=O)c1ccc(OCc2c(C)noc2C)cc1 [Compound 90, N-[2-(Acetylamino-methyl)-phenyl]-4-(3,5-dimethyl-isoxazol-4-ylmethoxy)-benzamide] | Inactive | –
CC(=O)NCc1cccc(NC(=O)c2ccc(OCc3c(C)noc3C)cc2)c1 [Compound 91, N-[3-(Acetylamino-methyl)-phenyl]-4-(3,5-dimethyl-isoxazol-4-ylmethoxy)-benzamide] | Inactive | –
Cc1cc(OCc2c(C)noc2C)ccc1-c1cnc(-c2cccc(C)c2C)[nH]1 [Compound 93] | Inactive | –
Cc1cccc(-c2cnc(-c3ccc(OCc4c(C)noc4C)cc3)[nH]2)c1C [Compound 94] | Inactive | –
Cc1cccc(-c2cc(-c3ccc(OCc4c(C)noc4C)cc3)n[nH]2)c1C [Compound 95] | Inactive | –
COCc1ccccc1NC(=O)c1ccc(OCc2c(C)noc2C)cc1 [Compound 96, 4-(3,5-Dimethyl-isoxazol-4-ylmethoxy)-N-(2-methoxymethyl-phenyl)-benzamide] | Inactive | –
Cc1cccc(NS(=O)(=O)c2ccc(OCc3c(C)noc3C)cc2)c1C [Compound 97, 4-(3,5-Dimethyl-isoxazol-4-ylmethoxy)-N-(2,3-dimethyl-phenyl)-benzenesulfonamide] | Inactive | –
Cc1sc2c(c1C)C(c1ccc(Cl)cc1)=N[C@@H](CC(=O)OC(C)(C)C)c1nnc(C)n1-2 [JQ1, reference compound] | – | glucose-dependent (glucose-stimulated) insulin secretion, luciferase reporter (INS-1E cells): None of the compounds assayed increased glucose-dependent insulin secretion; also recorded: No increase in secretion; also recorded: small effect; effect on glucose-stimulated insulin secretion at high concentrations (INS-1E cells): inhibitory effects; also recorded: decrease in glucose-stimulated secretion
[Cl-].[K+] [KCl, potassium chloride, reference compound] | – | alpha-cell secretory activity (luciferase reporter for glucagon secretion) (alpha-TC-1-6): causes secretion
COc1ccccc1S(=O)(=O)Nc1ccc2c(c1)CN(C)C(=O)N2 [PF1, reference compound] | – | glucose-dependent (glucose-stimulated) insulin secretion, luciferase reporter (INS-1E cells): neither of the known bromodomain inhibitors (PF1 or CBP30) affect secretion to the extent of Compound 8
COc1ccccc1S(=O)(=O)Nc1ccc2c(c1)CN(C)C(=O)N2 [PF-1, reference compound] | – | glucose-dependent (glucose-stimulated) insulin secretion, luciferase reporter (INS-1E cells): None of the compounds assayed increased glucose-dependent insulin secretion; effect on glucose-stimulated insulin secretion at high concentrations (INS-1E cells): inhibitory effects
COc1ccc(CCc2nc3cc(-c4c(C)noc4C)ccc3n2C[C@H](C)N2CCOCC2)cc1Cl [SGC-CBP30, reference compound] | – | glucose-dependent (glucose-stimulated) insulin secretion, luciferase reporter (INS-1E cells): None of the compounds assayed increased glucose-dependent insulin secretion; effect on glucose-stimulated insulin secretion at high concentrations (INS-1E cells): inhibitory effects
CC1CC(OC(=O)C(O)c2ccccc2)CC(C)(C)N1C (centres unmarked) [eucatropine, reference compound] | – | PS (Plasma stability, rat): 32.4 % remaining; PS (Plasma stability, mouse): 24.6 % remaining; PS (Plasma stability, human): 1.1 % remaining

From patent publication US11555031B2, “Compounds and methods for regulating insulin secretion” (The Broad Institute, Inc., priority 2017, dated 2023)
